The values that follow come from patent US7842672B2, “Phosphonate inhibitors of HCV” (Gilead Sciences, Inc., priority 2006, dated 2010).

Experiment [1] deals with HCV replicon cells (Huh7). The experiment in a line: HCV replicon assay (HCV EC50 determination, luciferase readout). The format is cell-based. As to conditions: for inhibition at 250 µM: Concentration tested 250 micromolar. As to the method:
Replicon cells were seeded in 96-well plates at a density of 8×10^3 cells per well in 100 μL of culture medium, excluding Geneticin. Compound was serially diluted in 100% DMSO and then added to the cells at a 1:200 dilution, achieving a final concentration of 0.5% DMSO and a total volume of 200 μL. Plates were incubated at 37° C. for 3 days, after which culture medium was removed and cells were lysed in lysis buffer provided by Promega's luciferase assay system. Following the manufacturer's instruction, 100 μL of luciferase substrate was added to the lysed cells and luciferase activity was measured in a TopCount luminometer.
(In antiviral work, replicon cells carry a viral genome segment that copies itself.)

The target in experiment [2] is HCV NS5b polymerase (Hepatitis C virus genotype 1b, UniProt Q9WMX2). Briefly: NS5b polymerase assay (HCV IC50 determination). As to conditions: Concentration tested 200 micromolar. Type of experiment: biochemical. As to the method:
Assay Protocol: NS5b polymerase assay (40 μL) was assembled by adding 28 μL polymerase mixture (final concentration: 50 mM Tris-HCl at pH 7.5, 10 mM KCL, 5 mM MgCl2, 1 mM DTT, 10 mM EDTA, 4 ng/μL of RNA template, and 75 nM HCV ? 21 NS5b polymerase) to assay plates followed by 4 μL of compound dilution. The polymerase and compound were pre-incubated at 35° C. for 10 minute before the addition of 8 μL of nucleotide substrate mixture (33P- ? -labeled competing nucleotide at KM and 0.5 mM of the remaining three nucleotides). The assay plates were covered and incubated at 35° C. for 90 min. Reactions were then filtered through 96-well DEAE-81 filter plates via vacuum. The filter plates were then washed under vacuum with multiple volumes of 0.125 M NaHPO4, water, and ethanol to remove unincorporated label. Plates were then counted on TopCount to assess the level of product synthesis over background controls. The IC50 value was determined using Prism fitting program.

As a reminder, the inhibition is how much of the control response was suppressed. Higher therefore signals a strong effect.

`NC(=O)c1ncn(C2OC(OCP(=O)(O)O)CC2O)n1` (stereo not drawn) [Compound 8.3, [5-(3-Carbamoyl-[1,2,4]triazol-1-yl)-4-hydroxy-tetrahydro-furan-2-yloxymethyl]-phosphonic acid]: the inhibition at 250 µM in experiment [1] (Hepatitis C virus, Huh-7) amounted to 18.5%.
Consider `CCCCOC(=O)[C@H](C)NP(=O)(CO[C@H]1O[C@@H](n2ccc(N)cc2=O)[C@H](O)[C@@H]1O)N[C@@H](C)C(=O)OCCCC` [Compound 32.5], for which the “% Inhibition of replicon” value in experiment [1] (Concentration tested 500 micromolar) is 37.5%.
Compound `C[C@]1(OCP(=O)(O)O)O[C@@H](n2ccc(=O)[nH]c2=O)[C@H](O)[C@@H]1O` [Compound 32.4, ((2R,3S,4R,5R)-5-(2,4-dioxo-3,4-dihydropyrimidin-1(2H)-yl)-3,4-dihydroxy-2-methyl-tetrahydrofuran-2-yloxy)methylphosphonic acid] had an inhibition at 250 µM in experiment [1] (Hepatitis C virus, Huh-7) of 14.8%.
As for `CCCCOC(=O)[C@H](C)NP(=O)(CO[C@@H]1C[C@@H](O)[C@H](n2cnc(C(N)=O)n2)O1)N[C@@H](C)C(=O)OCCCC` [Compound 9.5, Bis (Alanine-n-butyl ester) phosphonamidate pro drug of [5-(3-carbamoyl-[1,2,4]triazol-1-yl)-4-hydroxy-tetrahydro-furan-2-yloxymethyl]-phosphonic acid], at 50 µM the inhibition in experiment [1] (Hepatitis C virus, Huh-7, Concentration tested 50 micromolar) was 1.1%.
Take `NC(=O)c1ncn([C@@H]2O[C@H](OCP(=O)(O)OP(=O)(O)OP(=O)(O)O)C[C@H]2O)n1` [Compound 9.4, Diphosphate of [5-(3-Carbamoyl-[1,2,4]triazol-1-yl)-4-hydroxy-tetrahydro-furan-2-yloxymethyl]-phosphonic acid]: the inhibition at 200 µM in experiment [2] is 65.5%.
`Nc1nc2c(ncn2C2OC(OCP(=O)(O)O)CC2O)c(=O)[nH]1` (stereo not drawn) [Compound 5.2, [5-(2-Amino-6-oxo-1,6-dihydro-purin-9-yl)-4-hydroxy-tetrahydro-furan-2-yloxymethyl]-phosphonic acid] came in with an inhibition at 250 µM in experiment [1] (Hepatitis C virus, Huh-7) of 27.2%.
